Laboratory results from article PMC5684143, “New melanocortin-like peptide of E. coli can suppress inflammation via the mammalian melanocortin-1 receptor (MC1R): possible endocrine-like function for microbes of the gut” (NPJ Biofilms and Microbiomes, 2017).
Several values for one entry are separate records, joined by “and”; a condition that tells them apart may be missing. Identical values can stand only once.

Columns and labels:
RAW 264.7 cells [1] = assay: LPS-induced TNF release by RAW 264.7 cells; assay type: cell-based, murine; settings: for TNF-accumulated (% of control): peptide 10^-12 M, LPS 10 ng/ml, TNF by ELISA at 6 h, LPS alone set at 100%, mean ± SEM
Experimental: (§1) Murine macrophage-like RAW 264.7 cells were obtained from American Type Culture Collection, and were grown in Dulbecco’s Modified Eagle’s Medium (DMEM, Life Technologies) containing 10% (vol/vol) heat-inactivated fetal bovine serum (FBS, Hyclone Lab. Inc.), penicillin 100 U/ml, and streptomycin 100 μg/ml (BioWhittaker Inc.). Cells were suspended in medium and incubated in 24-well or 48-well tissue-culture plates overnight in a humidified incubator (37 °C, 5% CO2). Growth medium was removed and replaced by Opti-MEM I serum-free medium (Life Technologies) overnight. In the experiments, cell monolayers were stimulated with HMGB1 or LPS, in the absence or presence of MECO-1 or alpha-MSH; cell-free supernatants were assayed for TNF by ELISA or HMGB1 by western blotting.
(§2) Concentrations of TNF and IL-6 were each determined using a commercially available enzyme-linked immunosorbent assay (ELISA) kit (R&D System Inc.) as previously described.[34] The levels of TNF or IL-6 were calculated with reference to standard curves.
Fig. 2 Cytokine-induced TNF release inhibited by MECO-1. a Lipopolysaccharide (LPS), derived from the cell wall of Gram-negative bacteria, is a TLR4 and TLR2 agonist. RAW 264.7 cells were treated with MECO-1 and LPS simultaneously and incubated overnight. Supernatants were tested for TNF with ELISA. b Poly I:C, synthetic double stranded RNA, is recognized by TLR3. RAW 264.7 cells were pre-treated with MECO-1 and then stimulated with Poly I:C. Supernatants were tested in ELISA by TNF. c Peptidoglycan (PGN), another TLR2 agonist, is ubiquitous in the cell wall of bacteria. RAW 264.7 cells were pre-treated with MECO-1 and then stimulated with PGN; after overnight stimulation, supernatants were harvested and tested for TNF ELISA. d HMGB-1. Each vertical bar is the mean of three experimental points, using HMGB-1 to induce TNF release. Three sets of three experiments were used for the measurement of inhibition
Fig. 5 a Bioactive analogues of MECO-1. Murine macrophage-like RAW 264.7 cells were incubated with lipopolysaccharide (LPS, 4 ng/ml) in the absence or presence of MECO-1 or BACTN or BACFR, synthetic peptides based on the C-termini of EF-G of Bacteroides thetaiotamicron and Bacteroides fragilis. EFG-2 refers to human mitochondrial EFG-2 (mtEFG2). For Bacteroides thetaiotamicron, we used a 38-mer consisting of residues 681–703 shown in Fig. 4c followed by 704–718 QDKLIKDFEAKQTEE. For Bacteroides fragilis, we used a 33-mer consisting of residues, 681–703 shown in Fig. 4c followed by 704–713 = QDKLIKDFES. At 6 h after stimulation, aliquots of cell-free medium were examined. In other experiments, the synthetic peptide based on human mitochondrial EF-G1 (mtEFG1) gave results indistinguishable from EF-G2 (data not shown). The precise structure of the synthetic peptides is indicated in the text (see section “Results” and Table 1). Shown is a representative experiment.

RAW 264.7 cells [2] = assay: Peptidoglycan (PGN)-induced TNF release by RAW 264.7 cells; assay type: cell-based, murine; settings: picomolar range of peptide; waning inhibition at nanomolar concentrations
Experimental: as §1, §2
Fig. 2 Cytokine-induced TNF release inhibited by MECO-1. a Lipopolysaccharide (LPS), derived from the cell wall of Gram-negative bacteria, is a TLR4 and TLR2 agonist. RAW 264.7 cells were treated with MECO-1 and LPS simultaneously and incubated overnight. Supernatants were tested for TNF with ELISA. b Poly I:C, synthetic double stranded RNA, is recognized by TLR3. […]

[3] = system: human peripheral blood mononuclear cells (PBMC); assay: HMGB1-induced TNF release by human PBMC-derived macrophages; assay type: cell-based; settings: differentiated human macrophages; HMGB1 6 hours; ELISA; three independent experiments in duplicate
Experimental: Human PBMC were isolated by density gradient through Ficoll-Paque^TM PLUS centrifugation (Amersham Pharmacia Biotech), and suspended in RPMI 1640 containing 10% (vol/vol) heat-inactivated human serum (BioWhittaker Inc.), penicillin 100 U/ml, and streptomycin 100 μg/ml, and incubated at 37 °C in a humidified incubator with 5% CO2 atmosphere overnight. Non-adherent cells were discarded. Adherent monocytes were washed twice with PBS and were then suspended in 12-well and 24-well tissue culture plates and incubated in the same medium but now enriched with 2.5 ng/ml macrophage colony-stimulating factor for 5–7 days.[33] […]
as §2
Human peripheral blood mononuclear cells (PBMC) were isolated by density gradient centrifugation through Ficoll-PaqueTM PLUS, and cultured for 5-7 days in medium containing macrophage colony-stimulating factor (2.5 ng/ml). […] The content of TNF in the cell-free medium was determined by ELISA and expressed as mean ± SEM of three independent experiments performed in duplicate. *p< 0.05, **p< 0.01 vs. control (=HMGB1 alone without added melanocortin peptide).

RAW 264.7 cells [4] = assay: Cyclic-AMP production in RAW 264.7 cells; assay type: cell-based, murine; settings: 30 min, 37 °C, 1 mM IBMX, four experiments per peptide, each value from separate experiment(s)
Experimental: RAW 264.7 cells were grown to confluence in culture plates, harvested by classical methods, and then seeded onto 48-well plates (1 × 10^6/ml). Cells were incubated with peptide at 37 °C in Opti-MEM I serum-free medium containing 1 mM 3-isobutyl-1-methylxanthine. At 30 min, cells were lysed in the original wells. The lysates were extracted from the wells, and cyclic-AMP measurements carried out using the Biotrak kit (cyclic-AMP Biotrak Enzymeimmunoassay System, Amersham Biosciences) including a standard cyclic-AMP curve as recommended by the suppliers.[35]
RAW 264.7 cells were incubated with peptides for 30 minutes at 37 degrees. Cell lysates were extracted and c-AMP measurements carried out using a commercial kit [c-AMP biotrack-immunoassay system, Amersham Biosciences] with a c-AMP standard curve as recommended by the suppliers. […] The only experiment with ACTH is shown above. (Effects of LPS at 4 nanograms per ml. or of HMGB1 at 0.1 µg. per ml. on ligand-stimulated c-AMP accumulation were quite modest and inconsistent). […]

alpha-melanocyte-stimulating hormone [alpha-MSH]
peptide concentration at which attenuation of LPS-induced TNF-alpha release was observed (RAW 264.7 cells [1]; RAW 264.7 cells, overnight incubation, ELISA): 10^−15 M
TNF-accumulated (% of control) (RAW 264.7 cells [1]; agouti 0 pM, RAW 264.7 cells): 67.05 ± 10.2 % of control
TNF-accumulated (% of control) (RAW 264.7 cells [1]; agouti 10 pM, RAW 264.7 cells): 132.6 ± 4.9 % of control
TNF-accumulated (% of control) (RAW 264.7 cells [1]; agouti 10^3 pM, RAW 264.7 cells): 138.6 ± 12.4 % of control
TNF-accumulated (% of control) (RAW 264.7 cells [1]; agouti 10^5 pM, RAW 264.7 cells): 122.2 ± 4.3 % of control
inhibition of LPS-induced TNF-alpha release (valley) (RAW 264.7 cells [1]; at 10^−11–10^−10 M peptide, attenuation lost above 10^−10 M): ~90%
inhibition of PGN-induced TNF release (RAW 264.7 cells [2]): Up to 75%
attenuation of HMGB-1-induced TNF release [3]: significant effects in the picomolar range
peptide concentration at which statistically significant stimulation of cAMP was noted (single experiments) (RAW 264.7 cells [4]): 10^-9 M and 10^-10 M
